# Columns and labels:
# ISC-enriched organoids [1] = experiment: Primary screen, 384-well 2.5-D organoid differentiation (ENR+CD, 6 days): carbachol-induced lysozyme secretion (LYZ.S); type: cell-based, murine; conditions: primary screen, FC vs plate median
# From the text: (§1) High-throughput screening.
# ISC-enriched organoids [2] = experiment: Primary screen, 384-well 2.5-D organoid differentiation (ENR+CD, 6 days): basal lysozyme secretion (LYZ.NS); type: cell-based, murine; conditions: for Dose.FC.LYZ.NS: primary screen, FC vs plate median; for Z.LYZ.NS: standard z score of FC
# From the text: as §1
# ISC-enriched organoids [3] = experiment: Primary screen, 384-well 2.5-D organoid differentiation (ENR+CD, 6 days, Target Selective Inhibitor Library, vs whole-plate median): ATP (CellTiter-Glo 3D, CTG); conditions: for Dose.FC.CTG: primary screen, FC vs plate median; for Z.CTG: standard z score of FC
SMILES,Dose.FC.LYZ.S (ISC-enriched organoids [1]; Dose 0.08 uM) [log 2 fold change],Dose.FC.LYZ.S (ISC-enriched organoids [1]; Dose 0.40 uM) [log 2 fold change],Dose.FC.LYZ.S (ISC-enriched organoids [1]; Dose 2.00 uM) [log 2 fold change],Dose.FC.LYZ.S (ISC-enriched organoids [1]; Dose 10.00 uM) [log 2 fold change],Dose.FC.LYZ.NS (ISC-enriched organoids [2]; Dose 0.08 uM) [log 2 fold change],Z.LYZ.NS (ISC-enriched organoids [2]; Dose 0.08 uM),Dose.FC.LYZ.NS (ISC-enriched organoids [2]; Dose 0.40 uM) [log 2 fold change],Z.LYZ.NS (ISC-enriched organoids [2]; Dose 0.40 uM),Dose.FC.LYZ.NS (ISC-enriched organoids [2]; Dose 2.00 uM) [log 2 fold change],Z.LYZ.NS (ISC-enriched organoids [2]; Dose 2.00 uM),Dose.FC.LYZ.NS (ISC-enriched organoids [2]; Dose 10.00 uM) [log 2 fold change],Z.LYZ.NS (ISC-enriched organoids [2]; Dose 10.00 uM),Dose.FC.CTG (ISC-enriched organoids [3]; Dose 0.08 uM) [log 2 fold change],Z.CTG (ISC-enriched organoids [3]; Dose 0.08 uM),Dose.FC.CTG (ISC-enriched organoids [3]; Dose 0.40 uM) [log 2 fold change],Z.CTG (ISC-enriched organoids [3]; Dose 0.40 uM),Dose.FC.CTG (ISC-enriched organoids [3]; Dose 2.00 uM) [log 2 fold change],Z.CTG (ISC-enriched organoids [3]; Dose 2.00 uM),Dose.FC.CTG (ISC-enriched organoids [3]; Dose 10.00 uM) [log 2 fold change],Z.CTG (ISC-enriched organoids [3]; Dose 10.00 uM)
CN1C(=O)C(Cc2c[nH]c3ccccc23)NC1=S (stereo not shown) [Necrostatin-1],0.077,0.038,0.092,0.229,0.060,0.524,0.020,0.174,0.154,1.338,0.057,0.496,0.102,0.244,0.168,0.401,0.011,0.027,0.137,0.328
C#Cc1cccc(Nc2ncnc3cc(OCCOC)c(OCCO)cc23)c1 [OSI-420],0.059,−0.221,−0.381,−0.374,0.115,1.002,−0.224,−1.948,−0.287,−2.498,−0.325,−2.833,0.106,0.254,−0.130,−0.311,−1.263,−3.016,−1.100,−2.627
C[C@]1(O)C[C@@H](c2nc(-c3ccc4ccc(-c5ccccc5)nc4c3)c3c(N)nccn32)C1 [OSI-906 (Linsitinib)],−0.026,−0.119,−0.288,−0.328,0.013,0.110,−0.093,−0.806,−0.216,−1.882,−0.229,−1.996,−0.324,−0.775,−0.158,−0.377,−0.277,−0.661,−0.391,−0.934
NCC(=O)Nc1ccc(-n2nc(C(F)(F)F)cc2-c2ccc3c(ccc4ccccc43)c2)cc1 [OSU-03012 (AR-12)],0.126,0.113,0.060,−0.128,0.087,0.755,0.033,0.285,0.053,0.460,−0.049,−0.423,0.205,0.491,0.114,0.272,0.233,0.556,0.078,0.185
CC(C)(F)C[C@H](N[C@@H](c1ccc(-c2ccc(S(C)(=O)=O)cc2)cc1)C(F)(F)F)C(=O)NC1(C#N)CC1 [Odanacatib (MK-0822)],0.091,0.170,0.036,−0.074,0.086,0.752,0.162,1.409,0.024,0.212,−0.035,−0.307,0.119,0.285,0.208,0.496,−0.008,−0.020,0.006,0.015
CC[C@@H]1/C=C/C=C/C[C@H](C)[C@H](O)[C@](C)(O)C(=O)[C@H](C)[C@@H](O)[C@H](C)C(=O)[C@H](C)[C@@H](O)[C@H](C)/C=C/C(=O)O[C@H]2[C@@H](C)[C@@H](CC1)O[C@@]1(CC[C@@H](C)[C@@H](C[C@H](C)O)O1)[C@@H]2C [Oligomycin A],−0.243,−0.274,−0.269,−0.288,−0.204,−1.778,−0.231,−2.013,−0.213,−1.857,−0.223,−1.943,−0.662,−1.581,−0.706,−1.685,−0.946,−2.261,−1.244,−2.972
CCc1c(C(=O)NCCc2ccc(N3CCCCC3)cc2)[nH]c2ccc(Cl)cc12 [Org 27569],0.174,0.032,0.059,0.001,0.122,1.060,0.051,0.445,0.078,0.683,0.029,0.248,0.278,0.663,0.072,0.173,0.362,0.865,0.270,0.646
CC(=O)c1cc([N+](=O)[O-])c(Sc2ccc(F)cc2F)s1 [P22077],−0.182,0.065,−0.007,−0.063,0.039,0.338,−0.005,−0.041,0.028,0.248,−0.056,−0.487,−0.216,−0.516,0.049,0.117,−0.134,−0.320,−0.130,−0.311

# Source: patent US20230398130A1, “METHODS AND COMPOSITIONS FOR DIFFERENTIATING STEM CELLS” (Massachusetts Institute of Technology, priority 2020, published 2023)
